The text below walks through data of ChEMBL document CHEMBL1138510, “Antimalarial peroxide dyads from natural artemisinin and hydroxyalkylated 1,2,4-trioxanes” (2009).

This experiment deals with Plasmodium falciparum. In words: Antiplasmodial activity against Plasmodium falciparum NF54 infected human A+ erythrocytes after 72 hrs as IC ratio relative to dihydroartemisinin. Type of experiment: functional.

Take `C=C(C)[C@@H]1OOC(C)(C)O[C@@H]1CCO[C@H]1C[C@@H]2O[C@]3(C)CC[C@H]4[C@H](C)CC[C@@H]([C@H]1C)[C@@]24OO3`: the “Ratio IC50” value is on record as 0.54.
As for `C=C(C)[C@@H]1OOC2(CCCCC2)O[C@@H]1CCOC1C[C@@H]2O[C@]3(C)CC[C@H]4[C@H](C)CC[C@@H]([C@H]1C)[C@@]24OO3` (mixture of isomers), the figure is 0.49.
